Measurements: US20260234144A1 (TAY THERAPEUTICS LIMITED, priority 2023, published 2026)

Test system: R223X stop codon in the mutated luciferase gene, ADXC8 luciferase reporter cell line
Assay: cells
Assay type: cell-based
Conditions: ADXC8 cells, 24 hours; for Emax / EC (100% of 200 uM G418 response): 24 h; for Emax: read-out: Fold Over Control, maximum fold response relative to 200 μM G418; for EC (100% of 200 uM G418 response): read-out: pC100%, negative logarithm of the concentration giving the same response as 200 μM G418; for pC100%: negative logarithm of the concentration giving the same response as 200 μM G418

| Structure (SMILES) | Emax | EC (100% of 200 uM G418 response) | pC100% |
| --- | --- | --- | --- |
| CNc1nc(N[C@H]2CN(C(C)C)C[C@H]2F)nc2nc(C)cc(C)c12 [Example 523, N^2-((3S,4R)-4-fluoro-1-isopropylpyrrolidin-3-yl)-N^4,5,7-trimethylpyrido[2,3-d]pyrimidine-2,4-diamine] | 100 to 3000% | 1 to 10 µM | – |
| CNc1nc(N[C@H]2CN(C)C[C@H]2O)nc2nc(C)c3c(c12)CCC3 [Example 364] | 100 to 3000% | 1 to 10 µM | – |
| CN1CCC(Nc2nc(N)c3ccc(-c4ccccc4S(C)(=O)=O)nc3n2)CC1 [Example 116] | 0 to 100% | > 100 µM | – |
| Cc1cc(C)c2c(N)nc(NC3CCN(Cc4ccncc4O)CC3)nc2n1 [Example 564] | 100 to 3000% | 1 to 10 µM | – |
| CNc1nc(NC2CCN(C)C2(C)C)nc2nc(C)cc(C)c12 (stereo not shown) [Example 409] | 100 to 3000% | 1 to 10 µM | – |
| CN1CCC(Nc2nc(N)c3ccc(-c4cccc(C(F)(F)F)c4)nc3n2)CC1 [Example 67] | 100 to 3000% | 1 to 10 µM | – |
| CNC(=O)c1cccc(CN2CCC(Nc3nc(N)c4c(C)cc(C)nc4n3)CC2)c1 [Example 477] | 100 to 3000% | 10 to 100 µM | – |
| CNc1nc(N[C@@H]2CN(C)C[C@@H]2O)nc2nc3c(c(C)c12)CCC3 [Example 658] | 100 to 3000% | 1 to 10 µM | – |
| Cc1cc(C)c2c(N)nc(N[C@H]3CN[C@@H](C)C3)nc2n1 [Example 350] | 100 to 3000% | 1 to 10 µM | – |
| Cc1c2c(nc3nc(NC4CCN(Cc5cccc6cc[nH]c56)CC4)nc(N)c13)CCC2 [Example 672] | 100 to 3000% | 0.01 to 0.1 µM | – |
| Cc1cc(C)c2c(N)nc(NC3CCN(Cc4cccc(CO)c4)CC3)nc2n1 [Example 482] | 100 to 3000% | 10 to 100 µM | – |
| CN1CCC(Nc2cc(N)c3cccnc3n2)CC1 [Example 43, N^2-(1-methylpiperidin-4-yl)-1,8-naphthyridine-2,4-diamine] | 100 to 3000% | 10 to 100 µM | – |
| CN1CCC(Nc2nc(N)c3ccc(-c4cnccn4)nc3n2)CC1 [Example 117] | 0 to 100% | > 100 µM | – |
| CN1CCC(Nc2nc(N)c3ccc(-c4ccc(S(C)(=O)=O)cc4)nc3n2)CC1 [Example 54] | 0 to 100% | > 100 µM | – |
| CC(=O)NCCNc1nc(NC2CCN(C)CC2)nc2nc(C)cc(C)c12 [Example 355] | 0 to 100% | > 31.6 µM | – |
| Cc1cc(C)c2c(NCc3cccnc3)nc(NC3CCN(C)CC3)nc2n1 [Example 318] | 0 to 100% | > 31.6 µM | – |
| Cc1cc(C)c2c(N)nc(NCCNCC(F)(F)F)nc2n1 [Example 162] | 0 to 100% | > 31.6 µM | – |
| COc1cnc2nc(NC3CCN(C)CC3)nc(N)c2c1 [Example 241, 6-methoxy-N^2-(1-methylpiperidin-4-yl)pyrido[2,3-d]pyrimidine-2,4-diamine] | 0 to 100% | > 31.6 µM | – |
| Cc1c2c(nc3nc(NC4CCN(Cc5ccccc5O)CC4)cc(N)c13)CCC2 [Example 680] | 100 to 3000% | 0.01 to 0.1 µM | – |
| Cc1cc(C)c2c(N)nc(NCCCN3CCCCC3C)nc2n1 (stereo not shown) [Example 150] | 100 to 3000% | 1 to 10 µM | – |

| Structure (SMILES) | Emax | EC (100% of 200 uM G418 response) | pC100% |
| --- | --- | --- | --- |
| Cc1cc(C)c2c(N)nc(NCCCN3CCCCC3)nc2n1 [Example 7, 5,7-dimethyl-N^2-(3-(piperidin-1-yl)propyl)pyrido[2,3-d]pyrimidine-2,4-diamine] | 100 to 3000% | 1 to 10 µM | – |
| Cc1cc(C)c2c(N)nc(N[C@@H]3CNC[C@H]3O)nc2n1 [Example 302] | 100 to 3000% | 1 to 10 µM | – |
| CN1CCC(Nc2nc(N)c3ccc(-c4ccccc4F)nc3n2)CC1 [Example 88] | – | 1 to 10 µM | – |
| Cc1cc(C)c2c(N)nc(N[C@H]3CCN(Cc4ccc(C#N)cc4)C[C@@H]3F)nc2n1 [Example 574] | 100 to 3000% | 10 to 100 µM | – |
| CC(C)c1ccc2c(N)nc(NC3CCN(C)CC3)nc2n1 [Example 239, 7-isopropyl-N^2-(1-methylpiperidin-4-yl)pyrido[2,3-d]pyrimidine-2,4-diamine] | 100 to 3000% | 1 to 10 µM | – |
| CNc1nc(N[C@H]2CNC[C@@H]2C)nc2nc(C)cc(C)c12 [Example 382] | 100 to 3000% | 1 to 10 µM | – |
| CNc1nc(N[C@@H]2C[C@@H](O)CN(C)C2)nc2nc(C)cc(C)c12 [Example 604] | 100 to 3000% | 1 to 10 µM | – |
| CN1CCC(Nc2nc(N)c3ccc(-c4ccc(F)cc4)nc3n2)CC1 [Example 57] | 100 to 3000% | 1 to 10 µM | – |
| CNc1nc(N[C@@H]2C[C@H](C)N(C)C2)nc2nc(C)cc(C)c12 [Example 367] | – | 1 to 10 µM | – |
| COc1ccc(CNc2ccnc3nc(NC4CCN(C)CC4)nc(N)c23)cc1 [Example 298] | 0 to 100% | > 100 µM | – |
| CN1CCC(Nc2nc(N)c3ccc(-c4ncco4)nc3n2)CC1 [Example 119, N^2-(1-methylpiperidin-4-yl)-7-(oxazol-2-yl)pyrido[2,3-d]pyrimidine-2,4-diamine] | 100 to 3000% | 10 to 100 µM | – |
| Cc1cc(C)c2c(NC3CC3)nc(N[C@@H]3CCNC3)nc2n1 [Example 332] | 100 to 3000% | 1 to 10 µM | – |
| CNc1nc(N[C@H]2CN[C@H](C)C2)nc2nc(C)cc(C)c12 [Example 376] | – | 0.1 to 1 µM | – |
| CNc1nc(N[C@H]2CCCN(C)CC2)nc2nc(C)cc(C)c12 [Example 386] | 100 to 3000% | 1 to 10 µM | – |
| CNc1nc(N[C@@]2(C)CCN(C)C2)nc2nc(C)cc(C)c12 [Example 638] | 0 to 100% | > 31.6 µM | – |
| Cc1cc(C)c2c(N)nc(NC3CCN(Cc4ccns4)CC3)nc2n1 [Example 467] | 100 to 3000% | 1 to 10 µM | – |
| CNc1nc(NC2CC3CC2CN3C)nc2nc(C)cc(C)c12 (single isomer, unassigned) [Example 431] | 100 to 3000% | – | + (pC100% > 4.0 ≤ 5.0) |
| CNc1nc(NC2CCNCC2)nc2nc(C)c3c(c12)CCC3 [Example 552] | – | 0.1 to 1 µM | – |
| CN1CCC(Nc2nc(N)c3ccc(-c4cccnc4)nc3n2)CC1 [Example 25, N^2-(1-methylpiperidin-4-yl)-7-(pyridin-3-yl)pyrido[2,3-d]pyrimidine-2,4-diamine] | 100 to 3000% | 10 to 100 µM | – |
| CN1CCC(Nc2nc(N)c3c(N(C)C)ccnc3n2)CC1 [Example 307] | 0 to 100% | > 100 µM | – |

| Structure (SMILES) | Emax | EC (100% of 200 uM G418 response) | pC100% |
| --- | --- | --- | --- |
| Cc1cc(C)c2c(NCCC(=O)N(C)C)nc(NC3CCN(C)CC3)nc2n1 [Example 354] | 0 to 100% | > 31.6 µM | – |
| Cc1nc2nc(NC3CCN(C)CC3)nc(N)c2c(C)c1Cl [Example 130, 6-chloro-5,7-dimethyl-N^2-(1-methylpiperidin-4-yl)pyrido[2,3-d]pyrimidine-2,4-diamine] | 100 to 3000% | 1 to 10 µM | – |
| CN1CCC(Nc2nc(N)c3ccc(Cl)nc3n2)CC1 [Example 23, 7-chloro-N^2-(1-methylpiperidin-4-yl)pyrido[2,3-d]pyrimidine-2,4-diamine] | 100 to 3000% | 10 to 100 µM | – |
| Cc1cc(C)c2c(N)nc(NCCN3CC(C)OC(C)C3)nc2n1 (stereo not shown) [Example 151] | 0 to 100% | > 31.6 µM | – |
| Cc1cc(C)c2c(N)nc(NC3CCN(Cc4cccc5nc[nH]c45)CC3)nc2n1 [Example 660] | 100 to 3000% | 1 to 10 µM | – |
| COC(=O)c1ccc2c(N)nc(NC3CCN(C)CC3)nc2n1 [Example 235, methyl 4-amino-2-((1-methylpiperidin-4-yl)amino)pyrido[2,3-d]pyrimidine-7-carboxylate] | 0 to 100% | > 100 µM | – |
| Cc1cc(C)c2c(N)nc(NC3(C)CNC3)nc2n1 [Example 222] | 0 to 100% | > 31.6 µM | – |
| CN1CCC(Nc2nc(N)c3ccc(-c4cccc(O)c4)nc3n2)CC1 [Example 104] | – | 10 to 100 µM | – |
| CNc1cc(N[C@H]2CN(C)C[C@@H]2O)nc2nc3c(c(C)c12)CCC3 [Example 425, (3S,4S)-1-methyl-4-((5-methyl-4-(methylamino)-7,8-dihydro-6H-cyclopenta[b][1,8]naphthyridin-2-yl)amino)pyrrolidin-3-ol] | – | 0.1 to 1 µM | – |
| Cc1cc(C)c2c(N)nc(N[C@H]3CCCCNC3)nc2n1 [Example 312] | 100 to 3000% | 10 to 100 µM | – |
| CCCN1CCC(Nc2nc(N)c3c(C)cc(C)nc3n2)CC1 [Example 221] | – | 1 to 10 µM | – |
| CN1CCC(Nc2nc(N)c3ccc(-c4ccccc4N(C)C)nc3n2)CC1 [Example 72] | 0 to 100% | > 100 µM | – |
| CNc1nc(NC2CCN3CCCC3C2)nc2nc(C)cc(C)c12 (single isomer, unassigned) [Example 443] | 100 to 3000% | – | ++ (pC100% > 5.0 ≤ 6.0) |
| CN1CCC(Nc2nc(N)c3ccc(-c4ccncc4)nc3n2)CC1 [Example 111] | – | 10 to 100 µM | – |
| COc1ccnc2nc(NC3CCN(C)CC3)nc(N)c12 [Example 281] | 100 to 3000% | 10 to 100 µM | – |
| CN1CCC(Nc2nc(N)c3ccc(-c4ccccc4C#N)nc3n2)CC1 [Example 118] | – | 10 to 100 µM | – |
| COCc1cccc(CN2CCC(Nc3nc(N)c4c(C)cc(C)nc4n3)CC2)c1 [Example 464] | 100 to 3000% | 10 to 100 µM | – |
| CN1CCC(Nc2nc(N)c3cc(CO)cnc3n2)CC1 [Example 123, {4-amino-2-[(1-methylpiperidin-4-yl)amino]pyrido[2,3-d]pyrimidin-6-yl}methanol] | 0 to 100% | > 100 µM | – |
| CNc1nc(N[C@@H]2CN(C)C[C@H]2C)nc2nc(C)cc(C)c12 [Example 378] | 100 to 3000% | 1 to 10 µM | – |
